The record followed here is patent US12612412B2, “Antiviral heterocyclic compounds” (Enanta Pharmaceuticals, Inc., priority 2021, dated 2026).

Each structure is given as a SMILES string.

In one test the test system is genotype A, "Long" strain RSV. In words: RSV-A assay (CPE protection in Hep-2 cells, ATPlite readout). Type of test: cell-based, Human respiratory syncytial virus (HRSV). Particulars: RSV-A Long strain, MOI 0.1, CPE protection, read-out: Human RSV-A (“Long”) EC50. The method in brief: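 Compound effect on RSV-induced CPE: Hep-2 monolayers, MOI 0.1, duplicate 2-fold titrations, 5-day culture in 10% FBS DMEM. Readout is ATP-based luminescence, normalised to virus-only and no-virus controls, giving EC50.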
For orientation: ATP-based viability assays read luminescence as a measure of living cells.
Take `COc1cc(C(=O)NC[C@@](O)(c2cc3c(c(-c4ccc(F)c(Br)c4F)n2)OC[C@]3(C)C(N)=O)C(F)(F)F)cc2cn(C3CC3)nc12` [Example 1220]: the EC50 is below 200 nM.

The test is the same for the next values; noted with them: human respiratory syncytial virus, RSV-A Long strain, MOI 0.1, CPE protection, read-out: Human RSV-A (“Long”) EC50.
`[2H]C([2H])([2H])c1nc2c(OC)cc(C(=O)NC[C@](O)(c3cc4c(c(-c5cc(F)c(F)cc5F)n3)OC[C@]4(C)C(N)=O)C3CC3)cc2cc1Cl` [Example 1288]: the EC50 was below 200 nM.
The same measure, in the same setting: as for `COc1cc(C(=O)NC[C@](O)(c2cc3c(c(-c4cc(Cl)c(F)cc4F)n2)OC[C@]3(C)C(N)=O)C2(F)CC2)cc2cn(C(F)F)nc12` [Example 1112], the figure is below 200 nM.
On to `COc1cc(C(=O)NC[C@](O)(c2cc3c(c(-c4cc(F)cc(F)c4)n2)OC[C@]3(C)C(N)=O)C2CC2)cc2cn(C3CC3)nc12` [Example 1276], for which the EC50 was below 200 nM.
Regarding `COc1cc(C(=O)NC[C@](O)(c2cc3c(c(-c4c(F)ccc(Cl)c4Cl)n2)OC[C@]3(C)C(N)=O)C2CC2)cc2cn(C3CC3)nc12` [Example 1289], the EC50 was below 200 nM.
On the same count and under the same terms, the figure for `COc1cc(C(=O)NC[C@@](O)(c2cc3c(c(-c4cc(F)cc(F)c4F)n2)OC[C@]3(C)C(N)=O)C(F)(F)F)cc2cn(C3CC3)nc12` [Example 1246] is below 200 nM; for `COc1cc(C(=O)NC[C@](O)(c2cc3c(c(-c4cc(F)cc(F)c4F)n2)OC[C@]3(C)C(N)=O)C(F)(F)F)cc2cn(C3CC3)nc12` [Example 1247] it is below 200 nM.
On the same count and under the same terms, the figure for `CNC(=O)[C@@]1(C)COc2c1cc([C@](O)(CNC(=O)c1cc(OC)c3nn(C4CC4)cc3c1)C(F)(F)F)nc2-c1ccc(F)c(F)c1Cl` [Example 1201] is below 200 nM; for `COc1cc(C(=O)NC[C@](O)(c2cc3c(c(-c4c(Cl)ccc(Cl)c4F)n2)OC[C@]3(C)C(N)=O)C(F)(F)F)cc2cn(C3CC3)nc12` [Example 1262] it is below 200 nM; for `COc1cc(C(=O)NC[C@@](O)(c2cc3c(c(-c4cc(Br)c(F)cc4F)n2)OC[C@]3(C)C(N)=O)C(F)(F)F)cc2cn(C3CC3)nc12` [Example 1222] it is below 200 nM.
On the same count and under the same terms, as for `CCNC(=O)[C@@]1(C)COc2c1cc([C@@](O)(CNC(=O)c1cc(OC)c3nn(C4CC4)cc3c1)C(F)(F)F)nc2-c1ccc(F)cc1` [Example 1171], the figure is below 200 nM; as for `COc1cc(C(=O)NC[C@](O)(c2cc3c(c(-c4cc(Cl)cc(F)c4Cl)n2)OC[C@]3(C)C(N)=O)C(F)(F)F)cc2cn(C3CC3)nc12` [Example 1259], below 200 nM; as for `Cc1cc2cc(C(=O)NC[C@](O)(c3cc4c(c(-c5ccc(F)c(Cl)c5)n3)OC[C@]4(C)C(N)=O)C(F)(F)F)cc(OC3CC3)c2nc1Cl` [Example 1076], below 200 nM.
Take `COc1cc(C(=O)NC[C@](O)(c2cc3c(c(-c4ccc(F)cc4)n2)OC[C@]3(C)C(N)=O)C(F)(F)F)cc2cc(Br)c(C)nc12` [Example 1115]: the EC50 is below 200 nM.
On the same count and under the same terms, the figure for `COc1cc(C(=O)NC[C@](O)(c2cc3c(c(-c4c(Cl)ccc(F)c4F)n2)OC[C@]3(C)C(N)=O)C(F)(F)F)cc2cn(C3CC3)nc12` [Example 1284] is below 200 nM.
Same read-out and setting: the figure for `Cc1cnc2c(OC(F)F)cc(C(=O)NC[C@](O)(c3cc4c(c(-c5ccc(Cl)c(F)c5F)n3)OC[C@]4(C)C(N)=O)C3CC3)cc2c1` [Example 1214] is below 200 nM; for `COc1cc(C(=O)NC[C@](O)(c2cc3c(c(N4CCC(F)(F)CC4)n2)OC[C@]3(C)C(N)=O)C(F)(F)F)cc2cn(C3CC3)nc12` [Example 1270] it is below 200 nM; for `COc1cc(C(=O)NC[C@](O)(c2cc3c(c(-c4ccc(F)cc4)n2)OC[C@]3(C)C(=O)NCCC(C)(C)O)C(F)(F)F)cc2cn(C3CC3)nc12` [Example 1175] it is below 200 nM.
On the same count and under the same terms, as for `COc1cc(C(=O)NC[C@](O)(c2cc3c(c(-c4ccc(F)c(Cl)c4)n2)OC[C@@]3(CF)C(N)=O)C(F)(F)F)ccc1OC1CC1` [Example 1048], the figure is above 200 nM.

Still in this test, the particulars now being: human respiratory syncytial virus, genotype A “Long” strain RSV, MOI 0.1, CPE protection, read-out: Human RSV-A (“Long”).
Take `C[C@]1(C(N)=O)COc2c1cc([C@@](O)(CNC(=O)c1cc3cc[nH]c3cn1)C(F)(F)F)nc2-c1ccc(F)cc1` [Example 384]: the EC50 was above 200 nM.
Still for that read-out and setting: the figure for `C[C@]1(C(N)=O)COc2c1cc([C@@](O)(CNC(=O)c1ccc3nccn3n1)C(F)(F)F)nc2-c1ccc(F)cc1` [Example 417] is above 200 nM; for `C[C@]1(C(N)=O)COc2c1cc([C@@](O)(CNC(=O)c1ccoc1)C(F)(F)F)nc2-c1ccc(F)cc1` [Example 363] it is above 200 nM.
Still for that read-out and setting: as for `C[C@]1(C(N)=O)COc2c1cc([C@@](O)(CNC(=O)c1ccc3[nH]ncc3n1)C(F)(F)F)nc2-c1ccc(F)cc1` [Example 403], the figure is above 200 nM; as for `C[C@]1(C(N)=O)COc2c1cc([C@@](O)(CNC(=O)c1c[nH]c3cc(Cl)ccc13)C(F)(F)F)nc2-c1ccc(F)cc1` [Example 345], above 200 nM; as for `C[C@]1(C(N)=O)COc2c1cc([C@@](O)(CNC(=O)c1cccc3c1OCO3)C(F)(F)F)nc2-c1ccc(F)cc1` [Example 382], above 200 nM.
On the same count and under the same terms, the figure for `Cc1ccsc1C(=O)NC[C@](O)(c1cc2c(c(-c3ccc(F)cc3)n1)OC[C@]2(C)C(N)=O)C(F)(F)F` [Example 386] is above 200 nM; for `COc1cccc(-c2n[nH]cc2C(=O)NC[C@](O)(c2cc3c(c(-c4ccc(F)cc4)n2)OC[C@]3(C)C(N)=O)C(F)(F)F)c1` [Example 448] it is above 200 nM; for `CC[C@]1(C(N)=O)COc2c1cc([C@@](O)(CNC(=O)c1cc(OC)c3ncccc3c1)C(F)(F)F)nc2-c1ccc(F)cc1` [Example 237] it is below 200 nM.
As for `COc1cc(C(=O)NC[C@](O)(c2cc3c(c(-c4ccc(F)cc4)n2)OCC3(CF)C(N)=O)C(F)(F)F)cc2cn(C(F)F)nc12` (stereo partly drawn) [Example 288], the EC50 was below 200 nM.
Same read-out and setting: the figure for `COc1cc(C(=O)NC[C@](O)(c2cc3c(c(-c4ccc(F)cc4)n2)OC[C@]3(C)C(N)=O)C(F)(F)F)cc2nc(N)oc12` [Example 89] is below 200 nM; for `COc1cc(C(=O)NC[C@](O)(c2cc3c(c(-c4ccc(F)cc4)n2)OC[C@@]3(CF)C(N)=O)C(F)(F)F)cc2cc(Cl)c(C)nc12` [Example 284] it is below 200 nM.
With `C[C@]1(C(N)=O)COc2c1cc([C@@](O)(CNC(=O)c1csc(-c3ccccc3)n1)C(F)(F)F)nc2-c1ccc(F)cc1` [Example 482], the EC50 was above 200 nM.
Consider `CC[C@]1(C(N)=O)COc2c1cc([C@@](O)(CNC(=O)c1cc(OC)c3ncc(C(F)(F)F)cc3c1)C(F)(F)F)nc2-c1ccc(F)cc1` [Example 239], for which the EC50 is below 200 nM.
Turning to `CCN1Cc2cc(C(=O)NC[C@](O)(c3cc4c(c(-c5ccc(F)cc5)n3)OC[C@]4(C)C(N)=O)C(F)(F)F)ccc2C1=O` [Example 36], the EC50 was below 200 nM.
The same measure, in the same setting: the figure for `C[C@]1(C(N)=O)COc2c1cc([C@@](O)(CNC(=O)c1nc3cccnc3s1)C(F)(F)F)nc2-c1ccc(F)cc1` [Example 335] is above 200 nM; for `CC[C@@]1(C(N)=O)COc2c1cc([C@@](O)(CNC(=O)c1cc(OC)c3ncccc3c1)C(F)(F)F)nc2-c1ccc(F)cc1` [Example 246] it is above 200 nM.
Same read-out and setting: as for `Cc1nc2c(F)cc(C(=O)NC[C@](O)(c3cc4c(c(-c5ccc(F)cc5)n3)OC[C@]4(C)C(N)=O)C(F)(F)F)cc2s1` [Example 15], the figure is below 200 nM; as for `C[C@]1(C(N)=O)COc2c1cc([C@@](O)(CNC(=O)c1ccn3nc(C4CC4)cc3c1)C(F)(F)F)nc2-c1ccc(F)c(Cl)c1` [Example 67], below 200 nM; as for `C[C@]1(C(N)=O)COc2c1cc([C@@](O)(CNC(=O)c1cccc3nccn13)C(F)(F)F)nc2-c1ccc(F)cc1` [Example 360], above 200 nM.
Same read-out and setting: the figure for `Cc1nc(C2CC2)sc1C(=O)NC[C@](O)(c1cc2c(c(-c3ccc(F)cc3)n1)OC[C@]2(C)C(N)=O)C(F)(F)F` [Example 462] is below 200 nM; for `Cc1cnc2c(NC(=O)OC3CC3)cc(C(=O)NC[C@](O)(c3cc4c(c(-c5ccc(F)cc5)n3)OC[C@]4(C)C(N)=O)C(F)(F)F)cc2c1` [Example 216] it is below 200 nM.
Take `Cc1cc2cc(C(=O)NC[C@](O)(c3cc4c(c(-c5ccc(F)cc5)n3)OC[C@]4(C)C(N)=O)C(F)(F)F)ccc2n1C` [Example 175]: the EC50 was above 200 nM.
For the molecule `CC[C@@]1(C(N)=O)COc2c1cc([C@@](O)(CNC(=O)c1cc(OC)c3nc(C4CC4)cn3c1)C(F)(F)F)nc2-c1ccc(F)cc1` [Example 245], the EC50 was below 200 nM.
On to `C[C@]1(C(N)=O)COc2c1cc([C@@](O)(CNC(=O)c1cc(F)c3[nH]ncc3c1)C(F)(F)F)nc2-c1ccc(F)cc1` [Example 104], for which the EC50 is below 200 nM.
On the same count and under the same terms, the figure for `C[C@]1(C(N)=O)COc2c1cc([C@@](O)(CNC(=O)c1cc3ccccc3o1)C(F)(F)F)nc2-c1ccc(F)cc1` [Example 378] is above 200 nM; for `COc1cc2ccc(C(=O)NC[C@](O)(c3cc4c(c(-c5ccc(F)cc5)n3)OC[C@]4(C)C(N)=O)C(F)(F)F)cc2cc1OC` [Example 440] it is below 200 nM; for `CCS(=O)(=O)c1ccc(-c2nc([C@@](O)(CNC(=O)c3cc(F)c4nc(N)sc4c3)C(F)(F)F)cc3c2OC[C@]3(C)C(N)=O)cc1` [Example 311] it is above 200 nM.
Still for that read-out and setting: as for `COc1cc(C(=O)NC[C@](O)(c2cc3c(c(-c4ccc(F)cc4)n2)OC[C@]3(C)C(N)=O)C2CC2)cc2cn(C(F)F)nc12` [Example 303], the figure is below 200 nM.
Same read-out and setting: as for `COc1cc(C(=O)NC[C@](O)(c2cc3c(c(-c4ccc(F)cc4)n2)OC[C@]3(CF)C(N)=O)C(F)(F)F)cc2cc(C(F)(F)F)cnc12` [Example 287], the figure is below 200 nM.
Turning to `C[C@]1(C(N)=O)COc2c1cc([C@@](O)(CNC(=O)c1ccn3cc(C4CC4)nc3c1)C(F)(F)F)nc2-c1ccc(F)cc1` [Example 33], the EC50 was above 200 nM.
Same read-out and setting: as for `CC[C@@]1(C(N)=O)COc2c1cc([C@@](O)(CNC(=O)c1cc(OC)c3nc(C)c(Cl)cc3c1)C(F)(F)F)nc2-c1ccc(F)cc1` [Example 247], the figure is above 200 nM.
